Laboratory results taken from ChEMBL document CHEMBL5303304, “EUbOPEN Chemogenomics Library - IncuCyte” (2023).

Key:
Assay type in all cases: toxicity, cell-based
HEK-293T = assay: Incucyte cell viability with HEK293T; conditions: human, 10 µM, compound concentration 10 uM
Fibroblast = assay: Incucyte cell viability with human fibroblast; conditions: 10 µM, compound concentration 10 uM
U2OS = assay: Incucyte cell viability with U2OS; conditions: human, 10 µM, compound concentration 10 uM
Also: unitless GR value; below 1 slowed growth and below 0 cell loss.

## COc1cc(-c2cc(-c3cccc(O)c3)cnc2N)cc(OC)c1OC
HEK-293T; 6 h, replicate number 1
  Growth Rate: -0.66
HEK-293T; 6 h, replicate number 2
  Growth Rate: 0.38
HEK-293T; 12 h, replicate number 1
  Growth Rate: -0.58
HEK-293T; 12 h, replicate number 2
  Growth Rate: 0.41
HEK-293T; 18 h, replicate number 1
  Growth Rate: -0.43
HEK-293T; 18 h, replicate number 2
  Growth Rate: 0.33
HEK-293T; 24 h, replicate number 1
  Growth Rate: -0.24
HEK-293T; 24 h, replicate number 2
  Growth Rate: 0.42
Fibroblast; 0 h, replicate number 1
  Growth Rate: 0.1
Fibroblast; 0 h, replicate number 2
  Growth Rate: -0.98
Fibroblast; 6 h, replicate number 1
  Growth Rate: -0.21
Fibroblast; 12 h, replicate number 1
  Growth Rate: -1
Fibroblast; 18 h, replicate number 1
  Growth Rate: 0.59
U2OS; 12 h, replicate number 1
  Growth Rate: 0.89
U2OS; 12 h, replicate number 2
  Growth Rate: 0.96
U2OS; 18 h, replicate number 1
  Growth Rate: 0.73
U2OS; 18 h, replicate number 2
  Growth Rate: 0.85
U2OS; 24 h, replicate number 1
  Growth Rate: 0.75
U2OS; 24 h, replicate number 2
  Growth Rate: 0.86

## CCc1cncnc1N1CCN(Cc2nc3cc(C(F)(F)F)ccc3[nH]2)CC1
HEK-293T; 6 h, replicate number 1
  Growth Rate: 0.41
HEK-293T; 6 h, replicate number 2
  Growth Rate: 0.28
HEK-293T; 12 h, replicate number 1
  Growth Rate: 0.53
HEK-293T; 12 h, replicate number 2
  Growth Rate: 0.34
HEK-293T; 18 h, replicate number 1
  Growth Rate: 0.65
HEK-293T; 18 h, replicate number 2
  Growth Rate: 0.48
HEK-293T; 24 h, replicate number 1
  Growth Rate: 0.88
HEK-293T; 24 h, replicate number 2
  Growth Rate: 0.58
Fibroblast; 0 h, replicate number 1
  Growth Rate: 0.88
Fibroblast; 6 h, replicate number 1
  Growth Rate: 1
Fibroblast; 6 h, replicate number 2
  Growth Rate: -0.99
Fibroblast; 12 h, replicate number 1
  Growth Rate: -1
Fibroblast; 12 h, replicate number 2
  Growth Rate: 0.78
Fibroblast; 18 h, replicate number 1
  Growth Rate: 0.44
Fibroblast; 24 h, replicate number 1
  Growth Rate: 0.31
Fibroblast; 24 h, replicate number 2
  Growth Rate: 0.93
U2OS; 0 h, replicate number 2
  Growth Rate: -0.83
U2OS; 6 h, replicate number 1
  Growth Rate: 0.31
U2OS; 6 h, replicate number 2
  Growth Rate: 0.19
U2OS; 12 h, replicate number 1
  Growth Rate: 0.51
U2OS; 12 h, replicate number 2
  Growth Rate: 0.49
U2OS; 18 h, replicate number 1
  Growth Rate: 0.53
U2OS; 18 h, replicate number 2
  Growth Rate: 0.57
U2OS; 24 h, replicate number 1
  Growth Rate: 0.7
U2OS; 24 h, replicate number 2
  Growth Rate: 0.84

## Cc1nnsc1C(=O)Nc1ccc(-n2nc(C(F)(F)F)cc2C(F)(F)F)cc1
HEK-293T; 6 h, replicate number 1
  Growth Rate: 0.1
HEK-293T; 6 h, replicate number 2
  Growth Rate: -0.01
HEK-293T; 12 h, replicate number 1
  Growth Rate: 0.96
HEK-293T; 12 h, replicate number 2
  Growth Rate: 0.28
HEK-293T; 18 h, replicate number 1
  Growth Rate: 0.7
HEK-293T; 18 h, replicate number 2
  Growth Rate: 0.39
HEK-293T; 24 h, replicate number 1
  Growth Rate: 0.58
HEK-293T; 24 h, replicate number 2
  Growth Rate: 0.42
Fibroblast; 0 h, replicate number 2
  Growth Rate: 0.89
Fibroblast; 6 h, replicate number 1
  Growth Rate: 0.37
Fibroblast; 6 h, replicate number 2
  Growth Rate: -0.36
Fibroblast; 12 h, replicate number 1
  Growth Rate: -1
Fibroblast; 12 h, replicate number 2
  Growth Rate: 0.73
Fibroblast; 18 h, replicate number 2
  Growth Rate: 0.94
Fibroblast; 24 h, replicate number 2
  Growth Rate: 0.74
U2OS; 0 h, replicate number 2
  Growth Rate: -0.95
U2OS; 6 h, replicate number 1
  Growth Rate: 0.52
U2OS; 6 h, replicate number 2
  Growth Rate: -0.02
U2OS; 12 h, replicate number 1
  Growth Rate: 0.51
U2OS; 12 h, replicate number 2
  Growth Rate: 0.42
U2OS; 18 h, replicate number 1
  Growth Rate: 0.97
U2OS; 18 h, replicate number 2
  Growth Rate: 0.63
U2OS; 24 h, replicate number 1
  Growth Rate: 0.9
U2OS; 24 h, replicate number 2
  Growth Rate: 0.68

## Nc1n[nH]c2nc(-c3ccc(NS(=O)(=O)c4cccc(Cl)c4Cl)cc3)cnc12
HEK-293T; 6 h, replicate number 1
  Growth Rate: 0.93
HEK-293T; 6 h, replicate number 2
  Growth Rate: 0.42
HEK-293T; 12 h, replicate number 1
  Growth Rate: 0.83
HEK-293T; 12 h, replicate number 2
  Growth Rate: 0.81
HEK-293T; 18 h, replicate number 2
  Growth Rate: 0.84
HEK-293T; 24 h, replicate number 2
  Growth Rate: 0.95
Fibroblast; 0 h, replicate number 1
  Growth Rate: 0.67
Fibroblast; 0 h, replicate number 2
  Growth Rate: -0.78
Fibroblast; 6 h, replicate number 1
  Growth Rate: -0.19
Fibroblast; 6 h, replicate number 2
  Growth Rate: -1
Fibroblast; 12 h, replicate number 1
  Growth Rate: -0.95
U2OS; 0 h, replicate number 1
  Growth Rate: 0.36

## COCCNc1nc2ccc(C#CC3(O)CCCCC3)cc2n1-c1ccnc(N)n1
HEK-293T; 6 h, replicate number 1
  Growth Rate: 0.37
HEK-293T; 12 h, replicate number 2
  Growth Rate: 1
HEK-293T; 18 h, replicate number 2
  Growth Rate: 0.96
HEK-293T; 24 h, replicate number 2
  Growth Rate: 0.84
Fibroblast; 6 h, replicate number 1
  Growth Rate: -0.48
Fibroblast; 6 h, replicate number 2
  Growth Rate: -1
Fibroblast; 12 h, replicate number 1
  Growth Rate: -1
Fibroblast; 12 h, replicate number 2
  Growth Rate: -0.26
Fibroblast; 18 h, replicate number 1
  Growth Rate: 0.24
Fibroblast; 18 h, replicate number 2
  Growth Rate: 0.28
Fibroblast; 24 h, replicate number 1
  Growth Rate: 0.3
Fibroblast; 24 h, replicate number 2
  Growth Rate: 0.18
U2OS; 6 h, replicate number 1
  Growth Rate: 0.44
U2OS; 6 h, replicate number 2
  Growth Rate: 0.8
U2OS; 12 h, replicate number 1
  Growth Rate: 0.77
U2OS; 12 h, replicate number 2
  Growth Rate: 0.69
U2OS; 18 h, replicate number 1
  Growth Rate: 0.85
U2OS; 18 h, replicate number 2
  Growth Rate: 0.73
U2OS; 24 h, replicate number 1
  Growth Rate: 0.92
U2OS; 24 h, replicate number 2
  Growth Rate: 0.78
